These are literature values, as cited in publication PMC3694611 (Journal of natural products, 2012).

For series [1], the system named is Plasmodium falciparum. The settings on record: in words; ref [1a].
For series [2] the following is noted: in words; ref [ii].

Regarding Gallinamide A, the “activity against the malarial parasite Plasmodium falciparum” value in series [1] was “moderately active”.
Consider dolastatin-15, for which the anticancer potency result in series [2] is listed as “exceedingly potent”.
